Experimental findings from ChEMBL document CHEMBL1130376, “Effects of taxoids from Taxus cuspidata on microtubule depolymerization and vincristine accumulation in MDR cells” (Bioorg Med Chem Lett, 1997) are described below.

Experiment [1] can be described thus: Vincristine (VCR) accumulation in multidrug resistant human ovarian cancer 2780 AD cells at a concentration 1 ug/mL. In kind it is functional.
A short description of experiment [2]: Vincristine (VCR) accumulation in multidrug resistant human ovarian cancer 2780 AD cells at a concentration 10 ug/mL. In kind it is functional.
The next experiment concerns L1210. The experiment can be described thus: Cytotoxicity against murine leukemia L1210 cells. Particulars: Mus musculus, L1210; read-out: IC50. The format is functional, cell-based, Mus musculus.
The nature of experiment [3]: Cytotoxicity against human epidermoid carcinoma KB cells. In kind it is functional, cell-based.

≈ marks a conversion by molar mass, not a printed value.

On to `C=C1[C@@H](OC(=O)/C=C/c2ccccc2)C[C@H](OC(C)=O)[C@]2(C)[C@@H]1C[C@]1(C(C)(C)O)C[C@H](OC(C)=O)C(C)=C1[C@@H](OC(=O)c1ccccc1)[C@@H]2OC(C)=O` [TAXUSPINE A], for which the entries for the “vincristine accumulation (% of control)” value in experiment [1] and in experiment [2] were 142% and 246%, respectively. Also, the results for the IC50 (in the experiment with L1210; in experiment [3]) were 4.2 µg/mL (≈ 5.76 µM) and > 10 µg/mL, respectively.

In the case of `C=C1[C@@H](OC(=O)CC(c2ccccc2)N(C)C)CC[C@@]2(C)[C@@H](OC(C)=O)[C@H](OC(C)=O)C3=C(C)C(=O)C[C@@H]([C@@H](OC(C)=O)[C@H]12)C3(C)C` (some centres not stated), the “vincristine accumulation (% of control)” value in experiment [1] amounted to 177%; in experiment [2], 704%. Also, the IC50 (in the experiment on L1210; in experiment [3]) was > 10 µg/mL in each case.

With `C=C1[C@@H](O)CC[C@@]2(C)[C@@H](OC(C)=O)[C@H](OC(C)=O)C3=C(C)C(=O)C[C@@H]([C@@H](OC(C)=O)[C@H]12)C3(C)C` [TAXININE A], the “vincristine accumulation (% of control)” value is reported as 153% in experiment [1] and 461% in experiment [2]. Further, the IC50 – broadly, the concentration needed to halve the response being measured – with L1210 was 8.9 µg/mL (≈ 18.7 µM); in experiment [3] it was > 10 µg/mL.

With `CC(=O)O[C@H]1C[C@@]2(O)[C@@H](OC(C)=O)[C@@H]3[C@@]4(CO4)[C@@H](OC(C)=O)C[C@H](OC(C)=O)[C@@]3(C)[C@@H](OC(C)=O)[C@H](OC(C)=O)C(=C1C)C2(C)C`, the “vincristine accumulation (% of control)” value in experiment [1] turned out to be 119%; in experiment [2], 135%. Also, the IC50 (in the experiment on L1210; in experiment [3]) was > 10 µg/mL in each case.

For the molecule `C=C1[C@@H](O)C[C@H](OC(C)=O)[C@@]2(C)[C@@H](OC(C)=O)[C@H](OC(C)=O)C3=C(C)[C@@H](OC(C)=O)C[C@@H]([C@@H](O)[C@H]12)C3(C)C`, the “vincristine accumulation (% of control)” value in experiment [1] is reported as 205%; in experiment [2] it was 439%. Also, the half-inhibitory concentration (IC50) in the experiment with L1210 is 10 µg/mL (≈ 18.6 µM); in experiment [3] it was 7.4 µg/mL (≈ 13.8 µM).

`C=C1[C@@H](O)CC[C@@]2(C)[C@@H](OC(C)=O)[C@H](OC(C)=O)C3=C(C)C(=O)C[C@@](O)([C@@H](OC(C)=O)[C@H]12)C3(C)C`: the “vincristine accumulation (% of control)” value in experiment [1] came out at 152%; in experiment [2] it was 216%. Also, the 50% inhibitory concentration (IC50) in the experiment on L1210 worked out at 6.2 µg/mL (≈ 12.6 µM); in experiment [3], 0.6 µg/mL (≈ 1.22 µM).

As to `CC(=O)OC[C@H]1[C@H]2[C@H](O)[C@]3(O)C[C@H](OC(C)=O)C(C)=C([C@@H](OC(C)=O)[C@H](OC(C)=O)[C@]2(C)[C@@H](OC(C)=O)C[C@@H]1OC(C)=O)C3(C)C`, the “vincristine accumulation (% of control)” value worked out at 147% in experiment [1] and 208% in experiment [2]. Moreover, the figures for the half-inhibitory concentration (IC50) (in the experiment with L1210; in experiment [3]) were 4.6 µg/mL (≈ 7.03 µM) and > 10 µg/mL, respectively.

`CC(=O)O[C@H]1C[C@H]2[C@@H](OC(C)=O)/C=C3\C[C@](C)(C(=O)[C@H](O)C(=C1C)C2(C)C)[C@@H](OC(C)=O)C[C@@H]3OC(=O)/C=C/c1ccccc1` [TAXUSPINE B]: the “vincristine accumulation (% of control)” value in experiment [1] came to 219%; in experiment [2], 713%. Also, the concentration for half-maximal inhibition (IC50) (in the experiment on L1210; in experiment [3]) was > 10 µg/mL in each case.

Consider `C=C1[C@@H](O)C[C@H](OC(C)=O)[C@@]2(C)[C@@H](OC(C)=O)[C@H](OC(=O)c3ccccc3)C3=C(C)[C@@H](O)C[C@@]3(C(C)(C)O)[C@@H](OC(C)=O)[C@H]12` [TAXCHININ A], for which the “vincristine accumulation (% of control)” value in experiment [1] was 143%; in experiment [2] it was 192%. Also, the half-maximal inhibitory concentration (IC50) was > 10 µg/mL with L1210 and 0.4 µg/mL (≈ 0.651 µM) in experiment [3].

Take `C=C1[C@@H](OC(=O)/C=C/c2ccccc2)CC[C@@]2(C)[C@@H](OC(C)=O)[C@H](OC(C)=O)C3=C(C)C(=O)C[C@@H]([C@@H](OC(C)=O)[C@H]12)C3(C)C`: the figures for the “vincristine accumulation (% of control)” value in experiment [1] and in experiment [2] were 195% and 571%, respectively. In addition, the IC50 (in the experiment on L1210; in experiment [3]) was > 10 µg/mL throughout.

For `C=C1[C@@H](O)C[C@H](OC(C)=O)[C@@]2(COC(C)=O)[C@@H](OC(C)=O)[C@H](OC(C)=O)[C@]3(O)[C@@]4(C)CO[C@]3(C)C(=O)C[C@H]4[C@@H](OC(C)=O)[C@H]12`, the figures for the “vincristine accumulation (% of control)” value in experiment [1] and in experiment [2] were 142% and 198%, respectively. Also, the IC50 (in the experiment on L1210; in experiment [3]) was > 10 µg/mL each time.

On to `C=C1[C@@H](OC(=O)/C=C/c2ccccc2)CC[C@@]2(C)[C@@H](OC(C)=O)[C@H](OC(C)=O)[C@@]34[C@H](C)C(=O)C[C@@H]([C@@H](OC(C)=O)C132)C4(C)C` (some centres not stated), for which the “vincristine accumulation (% of control)” value was determined as 246% in experiment [1] and 768% in experiment [2]. Moreover, the 50% inhibitory concentration (IC50) was 5.8 µg/mL (≈ 9.56 µM) with L1210 and > 10 µg/mL in experiment [3].

Take `C=C1[C@@H](O)C[C@H](OC(C)=O)[C@@]2(C)[C@@H](OC(C)=O)[C@H](OC(C)=O)C3=C(C)[C@@H](OC(C)=O)C[C@@H]([C@@H](OC(C)=O)[C@H]12)C3(C)C` [DECINNAMOYLTAXININE J]: the “vincristine accumulation (% of control)” value in experiment [1] was determined as 207%; in experiment [2], 363%. Moreover, the concentration for half-maximal inhibition (IC50) (with L1210; in experiment [3]) was > 10 µg/mL each time.

Consider `C=C1[C@@H](O)C[C@H](O)[C@@]2(C)[C@@H](OC(C)=O)[C@H](OC(C)=O)C3=C(C)C(=O)C[C@@]3(C(C)(C)O)[C@@H](OC(C)=O)[C@H]12`, for which the “vincristine accumulation (% of control)” value turned out to be 151% in experiment [1] and 191% in experiment [2]. Moreover, the half-inhibitory concentration (IC50) (with L1210; in experiment [3]) was > 10 µg/mL each time.

Consider `C=C1[C@@H](OC(=O)/C=C/c2ccccc2)C[C@H](OC(C)=O)[C@]2(C)[C@@H]1C[C@]1(C(C)(C)O)C[C@H](OC(C)=O)C(C)=C1[C@@H](OC(C)=O)[C@@H]2OC(C)=O` [TAXUSPINE J], for which the “vincristine accumulation (% of control)” value in experiment [1] worked out at 258%; in experiment [2], 842%. Moreover, the IC50 (in the experiment on L1210; in experiment [3]) was > 10 µg/mL each time.

Turning to `C=C1[C@@H](OC(=O)/C=C/c2ccccc2)C[C@H](OC(C)=O)[C@@]2(CO)[C@@H](OC(C)=O)[C@H](OC(C)=O)[C@]3(O)[C@@]4(C)CO[C@]3(C)C(=O)C[C@H]4[C@@H](OC(C)=O)[C@H]12` [TAXUSPINE S], the “vincristine accumulation (% of control)” value was determined as 136% in experiment [1] and 190% in experiment [2]. Further, the half-maximal inhibitory concentration (IC50) in the experiment with L1210 turned out to be 3.8 µg/mL (≈ 5.33 µM); in experiment [3], 0.26 µg/mL (≈ 0.365 µM).

Consider `CC(=O)O[C@H]1C[C@H]2OC[C@@]2(OC(C)=O)[C@H]2[C@H](OC(C)=O)[C@]3(C(C)(C)O)C[C@H](OC(=O)/C=C/c4ccccc4)C(C)=C3[C@@H](OC(=O)c3ccccc3)[C@H](OC(C)=O)[C@]12C` [TAXCHININ B], for which the “vincristine accumulation (% of control)” value worked out at 219% in experiment [1] and 639% in experiment [2]. The half-inhibitory concentration (IC50) was 3.8 µg/mL (≈ 4.73 µM) in the experiment with L1210 and > 10 µg/mL in experiment [3].

As to `C=C1[C@@H](OC(=O)CC(c2ccccc2)N(C)C)CC[C@@]2(C)[C@@H](OC(C)=O)[C@H](OC(C)=O)[C@@]34[C@H](C)C(=O)C[C@@H]([C@@H](OC(C)=O)C132)C4(C)C` (some centres not stated), the “vincristine accumulation (% of control)” value in experiment [1] is listed as 174%; in experiment [2] it was 567%. The concentration for half-maximal inhibition (IC50) in the experiment on L1210 is > 10 µg/mL; in experiment [3] it was 1.6 µg/mL (≈ 2.45 µM).
